For one data set, the system named is TNF. Briefly: Cytokine Induction in Human Cells: tumor necrosis factor (TNF) secreted by PBMCs, ELISA. Also: call rule not given here. The class given is cell-based. The conditions noted are these: 18 to 24 hours. A digest of the protocol: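 Human donor PBMCs at 1.5-2×10^6 cells/mL in RPMI with 10% FBS were exposed to compound, generally at 0.1 to 100 μM (≤1% DMSO final), for 18 to 24 h at 37 °C. Secreted TNF in supernatant was measured by ELISA and reported as pg/mL.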
Background: In an ELISA, binding on a coated surface is turned into a signal by an enzyme label.

For another data set, the system named is IFN. Kind of data set: Cytokine Induction in Human Cells: interferon (IFN) secreted by PBMCs, A549/encephalomyocarditis bioassay. Also: call rule not given here. The settings on record: 18 to 24 hours. Format: cell-based. Put shortly:
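Human PBMCs from healthy donors at 1.5-2×10^6 cells/mL in RPMI with 10% FBS, exposed to compounds (typically 0.1 to 100 μM, ≤1% DMSO) for 18 to 24 h at 37° C. Secreted IFN measured by A549/encephalomyocarditis virus cytopathic-effect bioassay, in alpha reference units/mL against NIH human leukocyte IFN standard.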

For the molecule `CCCCc1nc2c(N)nc3cccnc3c2n1CCCOC(C)C` [Example 75, 2-Butyl-1-(3-isopropoxypropyl)-1H-imidazo[4,5-c][1,5]naphthyridine-4-amine], the melting point (commonly the temperature, or range, at which the solid turns liquid) lay within 174 to 175 °C. The TNF induction result in the data set with TNF (Dose Concentration 0.1 μM) is on record as “−”. In the data set on TNF (Dose Concentration 1.0 μM), the TNF induction entry is “−”. Further, the TNF induction result with TNF (Dose Concentration 10.0 μM) is “+”. Also, the TNF induction result in the data set with TNF (Dose Concentration 100.0 μM) is reported as “−”. Besides, in the data set on IFN (Dose Concentration 0.1 μM), the IFN induction entry is “−”. For the same molecule, the IFN induction result in the data set with IFN (Dose Concentration 1.0 μM) is on record as “+”. Moreover, in the data set with IFN (Dose Concentration 10.0 μM), the IFN induction entry is “+”. Besides, the IFN induction entry in the data set with IFN (Dose Concentration 100.0 μM) is “+”.

Regarding `CCCCOCCCn1c(CCCC)nc2c(N)nc3cccnc3c21` [Example 80, 1-(3-Butoxypropyl)-2-butyl-1H-imidazo[4,5-c][1,5]naphthyridin-4-amine], the melting point lay within 101 to 101.5 °C. Moreover, the TNF induction result in the data set on TNF (Dose Concentration 0.1 μM) was “−”. Also, the TNF induction result in the data set on TNF (Dose Concentration 1.0 μM) was “−”. The TNF induction result in the data set with TNF (Dose Concentration 10.0 μM) is “+”. Moreover, in the data set on TNF (Dose Concentration 100.0 μM), the TNF induction entry is recorded as “−”. Besides, the IFN induction result in the data set with IFN (Dose Concentration 0.1 μM) was “−”. For the same molecule, in the data set with IFN (Dose Concentration 1.0 μM), the IFN induction result is given as “+”. Further, in the data set on IFN (Dose Concentration 10.0 μM), the IFN induction result is “+”. The IFN induction entry in the data set on IFN (Dose Concentration 100.0 μM) is “−”.

Molecule `CCCCc1nc2c(N)nc3cccnc3c2n1CCOc1ccccc1` [Example 85, 2-Butyl-1-(2-phenoxyethyl)-1H-imidazo[4,5-c][1,5]naphthyridin-4-amine] yielded a melting point of 159 to 159.2 °C. In addition, in the data set with TNF (Dose Concentration 0.1 μM), the TNF induction result was “−”. Also, in the data set on TNF (Dose Concentration 1.0 μM), the TNF induction entry is “+”. Besides, the TNF induction result with TNF (Dose Concentration 10.0 μM) is reported as “+”. In addition, the TNF induction entry in the data set on TNF (Dose Concentration 100.0 μM) is recorded as “−”. For the same molecule, the IFN induction entry with IFN (Dose Concentration 0.1 μM) is reported as “+”. The IFN induction result in the data set on IFN (Dose Concentration 1.0 μM) is given as “+”. Further, in the data set on IFN (Dose Concentration 10.0 μM), the IFN induction result is “+”. Further, in the data set on IFN (Dose Concentration 100.0 μM), the IFN induction entry is on record as “−”.

As for `CCCCc1nc2c(N)nc3cccnc3c2n1CCNC(=O)OC(C)(C)C` [Example 90, 1,1-Dimethylethyl N-[2-(4-Amino-2-butyl-1H-imidazo[4,5-c][1,5]naphthyridin-1-yl)ethyl]carbamate], the melting point was in the range of 118 to 120 °C. Besides, the TNF induction entry in the data set with TNF (Dose Concentration 0.1 μM) was “−”. For the same molecule, in the data set with TNF (Dose Concentration 1.0 μM), the TNF induction result is “−”. Besides, in the data set on TNF (Dose Concentration 10.0 μM), the TNF induction result is given as “+”. In the data set on TNF (Dose Concentration 100.0 μM), the TNF induction result is “+”. For the same molecule, the IFN induction entry with IFN (Dose Concentration 0.1 μM) was “±”. Besides, in the data set on IFN (Dose Concentration 1.0 μM), the IFN induction result is recorded as “+”. Also, the IFN induction result in the data set on IFN (Dose Concentration 10.0 μM) is “+”. Further, in the data set with IFN (Dose Concentration 100.0 μM), the IFN induction result was “+”.

With `CCCCc1nc2c(N)nc3cccnc3c2n1CCN` [Example 91, 2-(4-Amino-2-butyl-1H-imidazo[4,5-c][1,5]naphthyridin-1-yl)ethaneamine], the melting point is 175 to 176 °C. The TNF induction entry with TNF (Dose Concentration 0.1 μM) was “+”. Moreover, the TNF induction entry in the data set with TNF (Dose Concentration 1.0 μM) was “+”. Besides, the TNF induction result with TNF (Dose Concentration 10.0 μM) is reported as “+”. The TNF induction entry with TNF (Dose Concentration 100.0 μM) is given as “+”. Moreover, the IFN induction result in the data set with IFN (Dose Concentration 0.1 μM) is “+”. Moreover, the IFN induction result with IFN (Dose Concentration 1.0 μM) was “+”. In the data set on IFN (Dose Concentration 10.0 μM), the IFN induction result was “+”. In addition, the IFN induction entry with IFN (Dose Concentration 100.0 μM) is listed as “+”.

Turning to `CCCCc1nc2c(N)nc3cccnc3c2n1CCNC(C)=O` [Example 92, N^1-[2-(4-Amino-2-butyl-1H-imidazo[4,5-c][1,5]naphthyridin-1-yl)ethyl]acetamide], the melting point is 228 to 230 °C. For the same molecule, the TNF induction entry with TNF (Dose Concentration 0.1 μM) was “−”. For the same molecule, in the data set on TNF (Dose Concentration 1.0 μM), the TNF induction result is “+”. In addition, the TNF induction entry with TNF (Dose Concentration 10.0 μM) is recorded as “+”. Also, in the data set on TNF (Dose Concentration 100.0 μM), the TNF induction result is on record as “+”. Further, in the data set with IFN (Dose Concentration 0.1 μM), the IFN induction entry is “±”. Moreover, the IFN induction result in the data set with IFN (Dose Concentration 1.0 μM) is listed as “+”. For the same molecule, the IFN induction result with IFN (Dose Concentration 10.0 μM) was “+”. Further, the IFN induction result in the data set on IFN (Dose Concentration 100.0 μM) is listed as “+”.

With `C/C=C/C(=O)NCCn1c(CCCC)nc2c(N)nc3cccnc3c21` [Example 93, N^1-[2-(4-Amino-2-butyl-1H-imidazo[4,5-c][1,5]naphthyridin-1-yl)ethyl]-(E)-2-butenamide], the melting point lay within 198 to 200 °C. For the same molecule, the TNF induction entry in the data set on TNF (Dose Concentration 0.1 μM) is given as “−”. Further, the TNF induction entry in the data set with TNF (Dose Concentration 1.0 μM) was “+”. For the same molecule, the TNF induction entry with TNF (Dose Concentration 10.0 μM) is recorded as “+”. The TNF induction entry with TNF (Dose Concentration 100.0 μM) was “+”. Also, the IFN induction result in the data set with IFN (Dose Concentration 0.1 μM) is “−”. In the data set with IFN (Dose Concentration 1.0 μM), the IFN induction entry is “+”. The IFN induction entry in the data set with IFN (Dose Concentration 10.0 μM) is “+”. Besides, in the data set on IFN (Dose Concentration 100.0 μM), the IFN induction entry was “+”.

Take `CCCCc1nc2c(N)nc3cccnc3c2n1CCNC(=O)C1CCCCC1` [Example 94, N^1-[2-(4-Amino-2-butyl-1H-imidazo[4,5-c][1,5]naphthyridin-1-yl)ethyl]-1-cyclohexanecarboxamide]: the melting point was 188 to 190 °C. For the same molecule, the TNF induction result in the data set with TNF (Dose Concentration 0.1 μM) is “−”. The TNF induction result in the data set on TNF (Dose Concentration 1.0 μM) is “+”. In the data set on TNF (Dose Concentration 10.0 μM), the TNF induction result is on record as “+”. Also, the TNF induction entry in the data set on TNF (Dose Concentration 100.0 μM) was “+”. The IFN induction result in the data set with IFN (Dose Concentration 0.1 μM) is “−”. The IFN induction entry with IFN (Dose Concentration 1.0 μM) is on record as “+”. Also, the IFN induction entry in the data set on IFN (Dose Concentration 10.0 μM) is “+”. The IFN induction result with IFN (Dose Concentration 100.0 μM) is on record as “+”.

Take `CCCCc1nc2c(N)nc3cccnc3c2n1CCNC(=O)c1cc(C(C)(C)C)c(O)c(C(C)(C)C)c1` [Example 95, N^1-[2-(4-amino-2-butyl-1H-imidazo[4,5-c][1,5]naphthyridin-1-yl)ethyl]-3,5-di-(1,1-dimethylethyl)-4-hydroxybenzamide]: the melting point lay within 248 to 250 °C. Further, the TNF induction result with TNF (Dose Concentration 0.1 μM) is reported as “−”. The TNF induction entry with TNF (Dose Concentration 1.0 μM) is recorded as “−”. The TNF induction entry in the data set on TNF (Dose Concentration 10.0 μM) is given as “+”. The TNF induction result in the data set on TNF (Dose Concentration 100.0 μM) is “+”. The IFN induction entry in the data set on IFN (Dose Concentration 0.1 μM) is listed as “±”. For the same molecule, the IFN induction result with IFN (Dose Concentration 1.0 μM) was “+”. The IFN induction entry with IFN (Dose Concentration 10.0 μM) is “+”. Also, the IFN induction result in the data set with IFN (Dose Concentration 100.0 μM) was “+”.

Molecule `CCCCc1nc2c(N)nc3cccnc3c2n1CCNC(=O)C1CCC(=O)O1` (stereo not drawn) [Example 97, N-[2-(4-Amino-2-butyl-1H-imidazo[4,5-c][1,5]naphthyridin-1-yl)ethyl]-5-oxotetrahydro-2-furancarboxamide] returned a melting point of 153 to 154 °C. The TNF induction entry with TNF (Dose Concentration 0.1 μM) was “−”. Also, the TNF induction entry in the data set on TNF (Dose Concentration 1.0 μM) is on record as “−”. In addition, the TNF induction entry in the data set on TNF (Dose Concentration 10.0 μM) is “+”. The TNF induction entry with TNF (Dose Concentration 100.0 μM) was “+”. Besides, in the data set with IFN (Dose Concentration 0.1 μM), the IFN induction result was “−”. Besides, the IFN induction result with IFN (Dose Concentration 1.0 μM) was “−”. In the data set with IFN (Dose Concentration 10.0 μM), the IFN induction entry is listed as “+”. Moreover, in the data set with IFN (Dose Concentration 100.0 μM), the IFN induction result is recorded as “+”.

`CCCCc1nc2c(N)nc3cccnc3c2n1CCNC(=O)Cc1cccc(O)c1` [Example 98, N^1-[2-(4-Amino-2-butyl-1H-imidazo[4,5-c][1,5]naphthyridin-1-yl)ethyl]-2-(3-hydroxyphenyl)acetamide] returned a melting point of 208 to 210 °C. Moreover, the TNF induction result in the data set on TNF (Dose Concentration 0.1 μM) was “−”. In addition, in the data set on TNF (Dose Concentration 1.0 μM), the TNF induction result is recorded as “+”. Besides, the TNF induction result in the data set with TNF (Dose Concentration 10.0 μM) is given as “+”. In addition, the TNF induction entry in the data set with TNF (Dose Concentration 100.0 μM) was “+”. In addition, the IFN induction entry in the data set with IFN (Dose Concentration 0.1 μM) is “−”. Moreover, in the data set with IFN (Dose Concentration 1.0 μM), the IFN induction entry is listed as “+”. The IFN induction entry with IFN (Dose Concentration 10.0 μM) is listed as “+”. Also, the IFN induction result with IFN (Dose Concentration 100.0 μM) is listed as “+”.

`CCCCc1nc2c(N)nc3cccnc3c2n1CCNC(=O)c1cccc(O)n1` [Example 99, N-[2-(4-Amino-2-butyl-1H-imidazo[4,5-c][1,5]naphthyridin-1-yl)ethyl]-6-hydroxy-2-pyridinecarboxamide] gave a melting point of 258 to 260 °C. Further, the TNF induction entry in the data set with TNF (Dose Concentration 0.1 μM) is “−”. Besides, in the data set with TNF (Dose Concentration 1.0 μM), the TNF induction result is on record as “−”. Moreover, the TNF induction entry in the data set on TNF (Dose Concentration 10.0 μM) was “+”. The TNF induction result in the data set on TNF (Dose Concentration 100.0 μM) is “+”. Also, the IFN induction result in the data set on IFN (Dose Concentration 0.1 μM) is “−”. For the same molecule, the IFN induction entry in the data set with IFN (Dose Concentration 1.0 μM) is given as “−”. For the same molecule, the IFN induction result in the data set on IFN (Dose Concentration 10.0 μM) is given as “+”. Besides, the IFN induction entry with IFN (Dose Concentration 100.0 μM) is recorded as “+”.

These data come from US7678918B2, “Intermediates for imidazonaphthyridines” (3M Innovative Properties Company, priority 1997, dated 2010).
